From patent US8927500B2, “Peptidomimetic macrocycles” (Aileron Therapeutics, Inc., priority 2012, dated 2015)
pIC50, pKi: −log10 of the molar value. Where a SMILES comes first, the peptide text is derived from it. Bridges are numbered along the chain shown (N, C = ends). [ ]: non-standard residue; d: D form. R8 = C=CCCCCCC[C@@](C)(N)C(=O)O; Chg = N[C@H](C(=O)O)C1CCCCC1; hLeu = CC(C)CC[C@H](N)C(=O)O; S5 = C=CCCC[C@](C)(N)C(=O)O; Nle = CCCC[C@H](N)C(=O)O; Ac3c = NC1(C(=O)O)CC1; Aib = CC(C)(N)C(=O)O

What was measured:
MDM2 = MDM2 (Homo sapiens, UniProt Q00987); assay: Competitive fluorescence polarization assay for MDM2; format: binding; details: competitive FP assay, MDM2; for pIC50: read-out: IC50 (MDM2); for pKi: read-out: Ki (MDM2)
MDMX = biological target: T1, MDMX (Homo sapiens, UniProt O15151); assay: Competitive fluorescence polarization assay for MDMX; format: binding; details: competitive FP assay; for pIC50: read-out: IC50 (MDMX); for pKi: read-out: Ki (MDMX)
T1 sequence (O15151 1-125): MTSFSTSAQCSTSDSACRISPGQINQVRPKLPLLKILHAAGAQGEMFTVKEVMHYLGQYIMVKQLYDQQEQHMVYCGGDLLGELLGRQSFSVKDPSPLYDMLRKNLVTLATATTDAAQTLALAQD

SJSA-1 cells = assay: Cell lysis by peptidomimetic macrocycles (LDH release); format: cell-based; details: 1 h at 37C
Method: On the day of the assay, media was exchanged with RPMI 1% FBS media, 90 uL of media per well.
10 mM stock solutions of the peptidomimetic macrocycles were prepared in 100% DMSO.
The negative control (non-lytic) sample was 0.5% DMSO alone and positive control (lytic) samples include 10 uM Melittin and 1% Triton X-100.
Cell plates were incubated for 1 hour at 37C. After the 1 hour incubation, the morphology of the cells is examined by microscope and then the plates were centrifuged at 1200 rpm for 5 minutes at room temperature. 40 uL of supernatant for each peptidomimetic macrocycle and control sample is transferred to clear assay plates.

Chain of MDM2 (Q00987 1-125): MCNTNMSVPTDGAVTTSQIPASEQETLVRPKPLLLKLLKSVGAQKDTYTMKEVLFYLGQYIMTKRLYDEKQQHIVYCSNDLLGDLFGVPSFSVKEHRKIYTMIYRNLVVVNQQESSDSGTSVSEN

Structure (SMILES)	pIC50 (MDM2)	pKi (MDM2)	pIC50 (MDMX)	pKi (MDMX)	6.25 uM % Lysed cells (1 h LDH) (SJSA-1 cells) [%]	25 uM % Lysed cells (1 h LDH) (SJSA-1 cells) [%]	50 uM % Lysed cells (1 h LDH) (SJSA-1 cells) [%]
CC[C@H](C)[C@H](NC(=O)[C@H](C)NC(=O)[C@H](C)NC(=O)[C@]1(C)CCCC=CCCCCCC[C@@](C)(NC(=O)[C@H](Cc2ccccc2)NC(=O)[C@@H](NC(=O)[C@H](CC(C)C)NC(C)=O)[C@@H](C)O)C(=O)N[C@@H](C)C(=O)N[C@@H](Cc2ccc(C(=O)O)cc2)C(=O)N[C@@H](Cc2c[nH]c3ccccc23)C(=O)N[C@@H](C)C(=O)N[C@@H](CCC(N)=O)C(=O)N[C@@H](CC(C)C)C(=O)N1)C(=O)N[C@H](C)C(N)=O (single isomer, unassigned) [compound 182]	> 8.00	> 8.00	6.00 to 7.00	7.00 to 8.00	0	3	6
CC[C@H](C)[C@H](NC(=O)[C@H](C)NC(=O)[C@H](C)NC(=O)[C@]1(C)CCCC=CCCCCCC[C@@](C)(NC(=O)[C@H](Cc2ccccc2)NC(=O)[C@@H](NC(=O)[C@H](CC(C)C)NC(C)=O)[C@@H](C)O)C(=O)N[C@@H](CCC(=O)O)C(=O)N[C@@H](Cc2ccc(O)cc2)C(=O)N[C@@H](Cc2c[nH]c3ccccc23)C(=O)N[C@@H](C)C(=O)N[C@@H](CCC(N)=O)C(=O)N[C@@H](CC(C)C)C(=O)N1)C(=O)N[C@H](C)C(N)=O (single isomer, unassigned) [compound 217]	> 8.00	> 8.00	6.00 to 7.00	7.00 to 8.00	2	1	2
CC(=O)N[C@@H](CC(C)C)C(=O)N[C@H](C(=O)N[C@@H](Cc1ccccc1)C(=O)N[C@]1(C)CCCCCCC=CCCC[C@@](C)(C(=O)N[C@@H](C)C(=O)N[C@@H](C)C(=O)NC(C)(C)C(=O)N[C@@H](C)C(N)=O)NC(=O)[C@H](CC(C)C)NC(=O)[C@H](CCC(N)=O)NC(=O)[C@H](C)NC(=O)[C@H](Cc2c[nH]c3ccccc23)NC(=O)[C@H](Cc2ccc(O)cc2)NC(=O)[C@H](C)NC1=O)[C@@H](C)O (single isomer, unassigned) [compound 232]	> 8.00	> 8.00	6.00 to 7.00	7.00 to 8.00	6	5	5
CC[C@H](C)[C@H](NC(=O)[C@H](C)NC(=O)[C@H](C)NC(=O)[C@]1(C)CCCC=CCCCCCC[C@@](C)(NC(=O)[C@H](Cc2ccccc2)NC(=O)[C@@H](NC(=O)[C@H](CC(C)C)NC(C)=O)[C@@H](C)O)C(=O)N[C@@H](CCC(=O)O)C(=O)N[C@@H](Cc2ccc(C(=O)O)cc2)C(=O)N[C@@H](Cc2c[nH]c3cc(Cl)ccc23)C(=O)N[C@@H](C)C(=O)N[C@@H](CCC(N)=O)C(=O)N[C@@H](CC2CCC2)C(=O)N1)C(=O)N[C@H](C)C(N)=O (single isomer, unassigned) [compound 336]	> 8.00	> 8.00	7.00 to 8.00	> 8.00	0	0	0
CCCC[C@H](NC(=O)[C@H](C)NC(=O)[C@H](CO)NC(=O)[C@]1(C)CCCC=CCCCCCC[C@@](C)(NC(=O)[C@H](Cc2ccccc2)NC(=O)[C@@H](NC(=O)[C@H](CC(C)C)NC(C)=O)[C@@H](C)O)C(=O)N[C@@H](C)C(=O)N[C@@H](Cc2ccc(O)cc2)C(=O)N[C@@H](Cc2c[nH]c3ccccc23)C(=O)N[C@@H](C)C(=O)N[C@@H](CCC(N)=O)C(=O)N[C@@H](CC(C)C)C(=O)N1)C(N)=O [compound 3] (Ac-LTF[R8]AYWAQL[S5]SA[Nle]-NH2; staple 4-11)	6.00 to 7.00	7.00 to 8.00	6.00 to 7.00	7.00 to 8.00	1	1	3
CC(=O)N[C@@H](CC(C)C)C(=O)N[C@H](C(=O)N[C@@H](Cc1ccccc1)C(=O)N[C@]1(C)CCCCCCC=CCCC[C@@](C)(C(=O)N[C@@H](CO)C(=O)N[C@@H](C)C(=O)N[C@@H](CCC(C)C)C(N)=O)NC(=O)[C@H](CC(C)C)NC(=O)[C@H](CCC(N)=O)NC(=O)[C@H](C)NC(=O)[C@H](Cc2c[nH]c3ccccc23)NC(=O)[C@H](Cc2ccc(O)cc2)NC(=O)[C@H](C)NC1=O)[C@@H](C)O [compound 6] (Ac-LTF[R8]AYWAQL[S5]SA[hLeu]-NH2; staple 4-11)	6.00 to 7.00	7.00 to 8.00	6.00 to 7.00	7.00 to 8.00	1	1	1
CC(=O)N[C@@H](CC(C)C)C(=O)N[C@H](C(=O)N[C@@H](Cc1ccccc1)C(=O)N[C@]1(C)CCCCCCC=CCCC[C@@](C)(C(=O)N[C@@H](CO)C(=O)N[C@@H](C)C(=O)N[C@H](C(N)=O)C2CCCCC2)NC(=O)[C@H](CC(C)C)NC(=O)[C@H](CCC(N)=O)NC(=O)[C@H](C)NC(=O)[C@H](Cc2c[nH]c3ccccc23)NC(=O)[C@H](Cc2ccc(O)cc2)NC(=O)[C@H](C)NC1=O)[C@@H](C)O [compound 9] (Ac-LTF[R8]AYWAQL[S5]SA[Chg]-NH2; staple 4-11)	6.00 to 7.00	7.00 to 8.00	6.00 to 7.00	7.00 to 8.00	−3	0	2
CC(=O)N[C@@H](Cc1ccccc1)C(=O)N[C@]1(C)CCCCCCC=CCCC[C@@](C)(C(=O)N[C@@H](C)C(=O)N[C@@H](C)C(=O)N[C@@H](CC(C)C)C(N)=O)NC(=O)[C@H](CC(C)C)NC(=O)C2(CC2)NC(=O)[C@H](CCC(=O)O)NC(=O)[C@H](Cc2c[nH]c3ccccc23)NC(=O)[C@H](Cc2ccc(O)cc2)NC(=O)[C@H](C)NC1=O [compound 15] (Ac-F[R8]AYWE[Ac3c]L[S5]AAL-NH2; staple 2-9)	7.00 to 8.00	7.00 to 8.00	6.00 to 7.00	7.00 to 8.00	1	2	5
CC(=O)N[C@@H](Cc1ccccc1)C(=O)N[C@]1(C)CCCCCCC=CCCC[C@@](C)(C(=O)N[C@@H](C)C(=O)N[C@@H](C)C(=O)N[C@@H](Cc2ccccc2)C(N)=O)NC(=O)[C@H](CC(C)C)NC(=O)C2(CC2)NC(=O)[C@H](CCC(=O)O)NC(=O)[C@H](Cc2c[nH]c3ccccc23)NC(=O)[C@H](Cc2ccc(O)cc2)NC(=O)[C@H](C)NC1=O [compound 18] (Ac-F[R8]AYWE[Ac3c]L[S5]AAF-NH2; staple 2-9)	7.00 to 8.00	> 8.00	7.00 to 8.00	> 8.00	0	2	4
CC[C@H](C)[C@H](NC(=O)[C@H](C)NC(=O)[C@H](C)NC(=O)[C@]1(C)CCCC=CCCCCCC[C@@](C)(NC(=O)[C@H](Cc2ccccc2)NC(C)=O)C(=O)N[C@@H](C)C(=O)N[C@@H](Cc2ccc(O)cc2)C(=O)N[C@@H](Cc2c[nH]c3ccccc23)C(=O)N[C@@H](CCC(=O)O)C(=O)NC2(CC2)C(=O)N[C@@H](CC(C)C)C(=O)N1)C(N)=O [compound 19] (Ac-F[R8]AYWE[Ac3c]L[S5]AAI-NH2; staple 2-9)	6.00 to 7.00	7.00 to 8.00	7.00 to 8.00	7.00 to 8.00	2	3	21
CC(=O)N[C@@H](Cc1ccccc1)C(=O)N[C@]1(C)CCCCCCC=CCCC[C@@](C)(C(=O)N[C@@H](C)C(=O)N[C@@H](C)C(=O)NC(C)(C)C(N)=O)NC(=O)[C@H](CC(C)C)NC(=O)C2(CC2)NC(=O)[C@H](CCC(=O)O)NC(=O)[C@H](Cc2c[nH]c3ccccc23)NC(=O)[C@H](Cc2ccc(O)cc2)NC(=O)[C@H](C)NC1=O [compound 22] (Ac-F[R8]AYWE[Ac3c]L[S5]AA[Aib]-NH2; staple 2-9)	7.00 to 8.00	> 8.00	7.00 to 8.00	7.00 to 8.00	0	0	0
CC(=O)N[C@@H](Cc1c[nH]cn1)C(=O)N[C@@H](CC(C)C)C(=O)N[C@H](C(=O)N[C@@H](Cc1ccccc1)C(=O)N[C@]1(C)CCCCCCC=CCCC[C@@](C)(C(=O)N[C@@H](C)C(=O)N[C@@H](C)C(=O)N[C@@H](CCC(C)C)C(=O)N[C@@H](C)C(N)=O)NC(=O)[C@H](CC(C)C)NC(=O)[C@H](CCC(N)=O)NC(=O)[C@H](Cc2c[nH]cn2)NC(=O)[C@H](Cc2c[nH]c3ccccc23)NC(=O)[C@H](Cc2c[nH]cn2)NC(=O)[C@H](Cc2c[nH]cn2)NC1=O)[C@@H](C)O [compound 32] (Ac-HLTF[R8]HHWHQL[S5]AA[hLeu]A-NH2; staple 5-12)	7.00 to 8.00	> 8.00	6.00 to 7.00	7.00 to 8.00	0	2	0
CCCC[C@H](NC(=O)[C@H](C)NC(=O)[C@H](CCC(N)=O)NC(=O)[C@H](Cc1c[nH]cn1)NC(=O)[C@]1(C)CCCC=CCCCCCC[C@@](C)(NC(=O)[C@H](Cc2ccccc2)NC(C)=O)C(=O)N[C@@H](C)C(=O)N[C@@H](Cc2ccc(O)cc2)C(=O)N[C@@H](Cc2c[nH]c3ccccc23)C(=O)N[C@@H](CO)C(=O)N[C@@H](C)C(=O)N[C@@H](CC(C)C)C(=O)N1)C(N)=O [compound 39] (Ac-F[R8]AYWSAL[S5]HQA[Nle]-NH2; staple 2-9)	< 6.00	6.00 to 7.00	6.00 to 7.00	6.00 to 7.00	0	0	3
